Consider five compounds from patent publication US8663660B2, “Polymerized micelles” (Les Laboratories Servier, priority 2008, dated 2014).

The nature of data set [1]: Critical micellar concentration. The format is physicochemical. As to the method: “Self-assembly” of amphiphilic molecules is understood to be the spontaneous organisation, into spherical micelles, of amphiphilic molecules in aqueous media at a concentration greater than the critical micellar concentration or CMC.
The critical micellar concentration of the amphiphilic molecule II-4 as described hereinbefore was determined in experiments to be 0.082 mg/ml.

A short description of a further data set: physchem. The following applies: for Molar level of inclusion: polymerised micelles at 10 mg/ml, 50° C. 12 hours, molar ratio medicament/(medicament + amphiphilic II-4) × 100; for Level of inclusion by weight: polymerised micelles of amphiphilic II-4 at 10 mg/ml, stirring at 50° C. for 12 hours, weight ratio medicament/(medicament + transporter) × 100; for Number of molecules per micelle: polymerised micelles, molar ratio medicament/amphiphilic II-4 × 100 amphiphilics per micelle. The method, then: At the end of the inclusion sequence, the solution is filtered in order to remove the excess of non-included active ingredient.
The level of inclusion of S39625 is determined by the reverse-phase HPLC method. This technique is based on the difference in the interaction of molecules between the mobile phase and the stationary phase. This difference affects the retention times for those molecules. For given HPLC conditions, the same molecule always has the same retention time. The reverse-phase HPLC conditions for determination of the level of inclusion of S39625 are an RP-18^c grafted silica column for the stationary phase and a gradient of water and of acetonitrile from 5% to 100% for the mobile phase. Detection of the S39625 at the column exit is carried out by a UV detector at a wavelength of 385 nm. A standard curve for S39625 in acetonitrile was produced by reverse HPLC.

Data set [2] can be described thus: Solubility of the active ingredient molecule in water. The format is physicochemical. Conditions: free molecule, without micelles.

The structures appear in SMILES notation. Values after ≈ are worked out from the molar mass of the structure shown.

Compound `CCCC#CC#CCCC(=O)NCCCCC(C(=O)O)N(CC(=O)O)CC(=O)O` (stereo not shown) [II-4] registered a Critical micellar concentration in data set [1] of 0.082 mg/mL.
`CC(=O)O[C@H]1C(=O)[C@@]2(C)[C@H]([C@H](OC(=O)c3ccccc3)[C@]3(O)C[C@H](OC(=O)[C@H](O)[C@@H](NC(=O)c4ccccc4)c4ccccc4)C(C)=C1C3(C)C)[C@]1(OC(C)=O)CO[C@@H]1C[C@@H]2O` [Paclitaxel, paclitaxel, reference compound] displayed a solubility at 12 h in “physchem” (50 °C, aqueous with cosolvent or surfactant or cyclodextrin, thermodynamic from solid) of 4550 µg/mL (≈ 5.33 mM). Besides, in “physchem”, the “Molar level of inclusion” value was 25%, the “Level of inclusion by weight” value is listed as 31% and the “Number of molecules per micelle” value was found to be 33. In addition, the “Level of inclusion by weight” value in the data set “physchem” (listed as paclitaxel) is listed as 33%.
On to `c1cc2ccc3cccc4ccc(c1)c2c34` [Pyrene, pyrene, reference compound], for which, in the data set “physchem”, the “Molar level of inclusion” value worked out at 63%, the “Level of inclusion by weight” value turned out to be 34% and the “Number of molecules per micelle” value was 167.
In the case of `CCC1(O)C(=O)Cc2c1cc1n(c2=O)Cc2c-1nc1cc3c(cc1c2C1CCC1)OCO3` (stereo not shown) [S 39625], in the data set “physchem”, the Solubility in water was 9000 µg/mL (≈ 20.9 mM), the “Molar level of inclusion” value was 56%, the “Level of inclusion by weight” value turned out to be 48% and the “Number of molecules per micelle” value is given as 125. In addition, in data set [2], the “Solubility of the molecule in water” value amounted to 0.09 µg/mL.
Taken in the same sequence, the figures for `CN(C)CC[C@H](CSc1ccccc1)Nc1ccc(S(=O)(=O)NC(=O)c2ccc3c(c2)CC[C@@H]2CN(Cc4ccccc4-c4ccc(Cl)cc4)CCN32)cc1[N+](=O)[O-]` [S 44563] were 8300 µg/mL (≈ 9.89 mM), 36%, 45%, 56 and 2.00 µg/mL.

By solubility is commonly meant the concentration that dissolves in the medium under given conditions. Higher therefore signals a readily soluble substance.
